# Measured values taken from patent US20170368082A1, “FORMULATIONS OF BRINCIDOFOVIR” (priority 2016, published 2017).
# How the values were obtained:
# [1] = Sterilization filter compatibility; type: physicochemical
# Procedure: Formulations of the disclosure were evaluated for sterilization filter compatibility. Aliquots of a testing brincidofovir formulation were filtered through the corresponding syringe filters as follows:
# A: Filter: 0.2 μm, 25 mm, syringe filter, Supor® membrane (PES), sterile; testing solution: 10 mg/mL brincidofovir, 200 mM sodium phosphate, pH=8.0; testing volume: 10 mL. B: Filter: 0.2 μm, 25 mm, syringe filter, Posidyne® membrane, sterile; testing solution: 10 mg/mL brincidofovir, 200 mM sodium phosphate, pH=8.0; testing volume: 10 mL. C: Filter: 0.22 μm, 33 mm, syringe filter, Durapore® PVDF membrane, γ-irradiated; testing solution: […] brincidofovir, 4 mM sodium phosphate, pH-8, approx. 5% dextrose (50× dilution of 10 mg/mL brincidofovir, 200 mM sodium phosphate, pH=8.0 with 5% dextrose solution; testing volume: 50 mL.
# The first and last 10% of the filtrate were collected. Samples of the collected filtrates, along with samples of the pre filtration formulation, were assessed for their appearance, pH, and c(BCV).
# [2] = Maximum tolerated dose study, single 2-hour IV infusion (Phase 1); type: in vivo, Sprague-Dawley CD rats
# Procedure: For Phase 1, Sprague-Dawley CD® rats (2/sex/dosing interval) were dosed with brincidofovir via 2-hour IV infusion once at 2, 4, 10 or 15 mg/kg. The maximum feasible dose (MFD) was limited to 15 mg/kg because of increased hemolytic potential when the concentration of brincidofovir exceeds 1 mg/mL in the dosing solution. The dose volume was 10 mL/kg/hr for all dosing intervals. Each dose administration was followed by a 2-3 day observation period. At the end of the Phase 1 treatment period, all animals were euthanized and discarded without macroscopic examination.
# For Phase 1 (MTD), up to four dose levels of brincidofovir were administered as escalating single doses in naïve male and female rats via intravenous infusion (2-hour). Each dose administration was followed by a 2-3 day observation period. Each subsequent dose level was increased and administered to naïve animals based on the response to the preceding doses until the maximum tolerated dose (MTD) was identified, or until the maximum feasible dose (MFD) based on prior evidence of hemolysis of 15 mg/kg was achieved.
# During Phase 1, each animal received a single dose administered via intravenous infusion (2-hours), followed by a 2-3 day observation period after each dose interval. Following the single intravenous (2-hour) infusion, the animals had their jackets and dosing sets removed and were not returned to saline maintenance.
# For dose observations, Phase 1: Signs of poor health or toxic or pharmacologic effects (e.g., abnormalities in general condition, appearance, activity, behavior, respiration, etc.) observed during infusion period were recorded.
# [3] = PES filter membrane, first 10% filtrate volume
# [4] = PES filter membrane, last 10% filtrate volume
# [5] = PES filter membrane, pre filtration
# [6] = PVDF filter membrane, first 10% filtrate volume
# [7] = PVDF filter membrane, last 10% filtrate volume
# [8] = PVDF filter membrane, pre filtration
# [9] = Posidyne filter membrane, first 10% filtrate volume
# [10] = Posidyne filter membrane, last 10% filtrate volume
# [11] = Posidyne filter membrane, pre filtration
compound,measurement,setting,value
CCCCCCCCCCCCCCCCOCCCOP(=O)(O)CO[C@H](CO)Cn1ccc(N)nc1=O [Brincidofovir],Appearance,[1]; [3],"Clear,"
same,Measured pH,[1]; [3],8.0
same,Observed c(BCV),[1]; [3],9.8 mg/mL
same,Appearance,[1]; [4],"Clear,"
same,Measured pH,[1]; [4],8.0
same,Observed c(BCV),[1]; [4],9.8 mg/mL
same,Appearance,[1]; [5],"Clear,"
same,Measured pH,[1]; [5],8.1
same,Observed c(BCV),[1]; [5],9.9 mg/mL
same,Appearance,[1]; [6],"Clear,"
same,Measured pH,[1]; [6],8.1
same,Observed c(BCV),[1]; [6],0.20 mg/mL
same,Appearance,[1]; [7],"Clear,"
same,Measured pH,[1]; [7],8.1
same,Observed c(BCV),[1]; [7],0.20 mg/mL
same,Appearance,[1]; [8],"Clear,"
same,Measured pH,[1]; [8],8.0
same,Observed c(BCV),[1]; [8],0.20 mg/mL
same,Appearance,[1]; [9],"Clear,"
same,Measured pH,[1]; [9],8.0
same,Observed c(BCV),[1]; [9],9.7 mg/mL
same,Appearance,[1]; [10],"Clear,"
same,Measured pH,[1]; [10],8.0
same,Observed c(BCV),[1]; [10],9.8 mg/mL
same,Appearance,[1]; [11],"Clear,"
same,Measured pH,[1]; [11],8.1
same,Observed c(BCV),[1]; [11],9.9 mg/mL
same,Survival,"[2]; 2, 4, 10 or 15 mg/kg",survived until their scheduled euthanasia
same,Tolerability,"[2]; 2, 4, 10 or 15 mg/kg single 2-hour IV infusion",all doses were well tolerated
same,Clinical signs,"[2]; Dose 1 (2 mg/kg), both males","rapid breath and hunched posture, with and without piloerection, partially closed eyes, and decreased activity"
same,Clinical signs,"[2]; Dose 2 (4 mg/kg), both males and one female",irregular breathing
same,Clinical signs,[2]; Dose 3 (10 mg/kg),No clinical signs were observed
same,Clinical signs,"[2]; Dose 4 (15 mg/kg), both males and one female","decreased activity with or without irregular breathing, piloerection, and bilateral partially closed eyes"
same,Maximum feasible dose (MFD),[2]; single 2-hour IV infusion,15 mg/kg
